Data as given in patent US20210346359A1, “Use of CFTR Modulators For Treating Cerebrovascular Conditions” (Qanatpharma AG, priority 2018, published 2021).
“Also recorded” adds a separate entry of the source.

How the values were obtained:
[1] = test system: olfactory cerebral arteries; assay: Myogenic tone of isolated olfactory cerebral arteries after in vivo treatment; design: species or system mouse
Experimental: Induction of Subarachnoid Hemorrhage: A well-characterized model of experimental SAH (6) was used. Briefly, each mouse was anaesthetized (isoflurane) and its head was fixed in a stereotactic frame: a 7 mm incision was made along the midline of the anterior scalp and 0.9 mm hole drilled into the skull 4.5 mm anterior to the bregma. A spinal needle was advanced to the chiasmatic cistern: 80 μl of arterial blood was injected into the intracranial space over 10 seconds. […] Following injection, the scalp incision was closed. Buprenorphine (0.05 mg/kg; 0.5-1.0 ml volume) was administered twice/day (initiated immediately following the SAH surgical procedure). Sham-operated animals underwent an identical surgical procedure, with sterile saline injected instead of blood. Olfactory cerebral arteries were isolated at 2 days post-SAH induction.
Isolation and functional assessment of resistance arteries: Mouse olfactory (a first branch of the anterior cerebral artery) and PCAs were carefully dissected, cannulated onto micropipettes, stretched to their in vivo lengths and pressurized to 45 mmHg, as previously described (3,6); mouse skeletal muscle resistance arteries were dissected from the cremaster muscle, cannulated and pressurized to 60 mmHg. All functional experiments were conducted in 3-morpholinopropanesulfonic acid (MOPS) buffered saline at 37° C. with no perfusion. […]
Myogenic responses were elicited by step-wise 20 mmHg increases in transmural pressure from 20 mmHg to 80 mmHg (olfactory arteries) or 100 mmHg (posterior cerebral arteries and cremaster skeletal muscle resistance arteries). At each pressure step, vessel diameter (diaactive) was measured once a steady state was reached (5 min). Vessels requiring treatment (e.g., CFTR(inh)-172) were incubated with the reagent in MOPS for 30 min and myogenic responses were then assessed in the presence of that reagent. Following completion of all diaactive measurements, MOPS buffer was replaced with a Ca^2+-free version and maximal passive diameter (diamax) was recorded at each pressure step.
Myogenic tone was calculated as the percent constriction in relation to the maximal diameter at each respective transmural pressure: tone (% of diamax)=[(diamax−diaactive)/diamax]×100, where diaactive is the vessel diameter in MOPS containing Ca^2+ and diamax is the diameter in Ca^2+-free MOPS. Analyses of vasomotor responses to phenylephrine used the same calculation, only in this case, diaactive represents the vessel diameter at steady state following application of the given agent and diamax represents the maximal diameter measured under Ca^2+-free conditions.

[2] = molecular target: CFTR (Mus musculus, UniProt P26361); assay: CFTR protein in cerebral arteries of mice with subarachnoid hemorrhage; assay type: in vivo; design: Cerebral artery lysates were prepared by grinding artery samples in lysis buffer; from tissue; host or cells: cerebral arteries of male wild-type C57BL/6N mice (naïve, heart failure or subarachnoid hemorrhage models); settings: 2 days post-induction, 3 mg/kg daily for 2 days
CFTR, sequence (P26361 whole entry): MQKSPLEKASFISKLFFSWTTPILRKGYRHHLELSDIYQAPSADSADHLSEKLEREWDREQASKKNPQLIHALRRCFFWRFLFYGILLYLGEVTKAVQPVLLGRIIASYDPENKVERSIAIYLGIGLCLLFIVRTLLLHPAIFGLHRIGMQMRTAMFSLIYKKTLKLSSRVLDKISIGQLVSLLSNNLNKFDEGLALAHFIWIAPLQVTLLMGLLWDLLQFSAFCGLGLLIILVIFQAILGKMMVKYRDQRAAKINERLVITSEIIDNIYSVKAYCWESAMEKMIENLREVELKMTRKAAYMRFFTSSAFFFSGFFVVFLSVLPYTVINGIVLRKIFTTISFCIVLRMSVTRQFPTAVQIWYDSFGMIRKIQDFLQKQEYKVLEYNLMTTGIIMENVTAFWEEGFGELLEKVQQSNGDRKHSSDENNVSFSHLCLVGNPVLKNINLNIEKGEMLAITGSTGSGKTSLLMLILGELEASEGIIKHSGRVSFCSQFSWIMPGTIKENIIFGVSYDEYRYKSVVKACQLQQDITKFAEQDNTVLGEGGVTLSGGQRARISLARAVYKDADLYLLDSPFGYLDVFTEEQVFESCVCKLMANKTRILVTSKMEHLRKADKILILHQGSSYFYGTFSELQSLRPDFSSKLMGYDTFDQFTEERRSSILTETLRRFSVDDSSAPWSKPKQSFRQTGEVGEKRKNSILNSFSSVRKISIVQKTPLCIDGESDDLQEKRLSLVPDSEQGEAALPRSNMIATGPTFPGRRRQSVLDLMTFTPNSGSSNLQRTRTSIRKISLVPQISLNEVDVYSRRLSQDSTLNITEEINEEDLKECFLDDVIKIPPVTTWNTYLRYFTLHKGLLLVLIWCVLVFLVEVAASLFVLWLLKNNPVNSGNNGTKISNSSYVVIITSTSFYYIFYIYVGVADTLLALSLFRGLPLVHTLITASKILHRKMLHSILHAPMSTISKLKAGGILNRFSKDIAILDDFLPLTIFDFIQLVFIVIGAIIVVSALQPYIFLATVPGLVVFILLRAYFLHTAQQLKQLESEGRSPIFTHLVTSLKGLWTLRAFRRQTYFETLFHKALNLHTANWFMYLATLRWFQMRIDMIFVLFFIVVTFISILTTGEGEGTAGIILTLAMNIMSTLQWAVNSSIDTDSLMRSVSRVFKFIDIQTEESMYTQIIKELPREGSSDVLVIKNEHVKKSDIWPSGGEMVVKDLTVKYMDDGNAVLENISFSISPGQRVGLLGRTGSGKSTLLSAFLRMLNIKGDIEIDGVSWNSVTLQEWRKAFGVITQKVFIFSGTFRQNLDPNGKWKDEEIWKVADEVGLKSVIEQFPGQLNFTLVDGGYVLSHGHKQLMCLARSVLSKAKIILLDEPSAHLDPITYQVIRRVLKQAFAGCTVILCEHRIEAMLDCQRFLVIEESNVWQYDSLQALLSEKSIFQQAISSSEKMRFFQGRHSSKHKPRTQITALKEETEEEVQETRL
Experimental: Western blots for CFTR were completed as previously described (12, 18). Cerebral artery lysates were prepared by grinding artery samples in lysis buffer containing 50 mM Tris (pH 7.3), 150 mM NaCl, 2 mM […], 0.1% Triton-X-100, 0.1% […] and protease inhibitors; the same lysis buffer was used to prepare cell culture lysates. Following lysis, the samples were centrifuged (10 minutes at 13,500 g; at 4° C.) to remove insoluble material. Immediately prior to polyacrylamide electrophoresis, additional SDS (to 2% final concentration), glycerol (to 2% final concentration), β-mercaptoethanol (to 2% final concentration) and dithiothreitol (2 mM final concentration) were added. Proteins were separated electrophoretically on 7% acrylamide gels and transferred onto polyvinylidene difluoride (PVDF) membranes. […]
The primary antibodies were conjugated with either peroxidase-labeled donkey anti-rabbit IgG (GE Healthcare Amersham (Piscataway, USA) cat# NA934) or peroxidase-labeled goat anti-mouse IgG (GE Healthcare Amersham cat# NA931) secondary antibodies. […] Developed films were evaluated densitometrically using “Image J” software (freely available from the NIH); digital images were evaluated with Image Lab software (Bio-Rad). […]

[3] = arteries from SAH mice, in vivo 3 mg/kg daily for 2 days

Row | Compound | olfactory cerebral artery myogenic tone ([1]; arteries from CFTR knockout mice, in vivo 3 mg/kg daily for 2 days) | olfactory cerebral artery myogenic tone [1, 3] | olfactory cerebral artery myogenic tone ([1]; arteries from sham-operated mice, 3 mg/kg i.p. daily for 2 days, 3 mg/kg) | cerebral artery CFTR protein expression in SAH [2]
1 | O=C(Nc1ncc(C(c2ccccc2Cl)N2CCC(O)C2)s1)C1(c2ccc3c(c2)OCO3)CC1 (stereo not drawn) [C18, 1-(benzo[d][1,3]dioxol-5-yl)-N-(5-((2-chlorophenyl)(3-hydroxypyrrolidin-1-yl)methyl)thiazol-2-yl)cyclopropanecarboxamide] | not susceptible; also recorded: not observed | normalizes; also recorded: reduces | does not affect; also recorded: does not alter | restores; also recorded: eliminates this reduction
2 | Cc1ccc(NC(=O)C2(c3ccc4c(c3)OC(F)(F)O4)CC2)nc1-c1cccc(C(=O)O)c1 [lumacaftor] | – | normalizes; also recorded: reduces | – | restores; also recorded: eliminates this reduction
